The nature of series [1]: Vasodilator activity: increase in blood flow in autoperfused anaesthetised rat hindquarters. Type of series: in vivo. Particulars: for ED (50% increase): Rattus norvegicus, read-out: dose required to increase hindquarters blood flow by 50%. The source says:
The doses required to increase hindquarters blood flow by 50% were obtained.

For a further series, the system named is β1 -adrenoceptor. In words: Overall hypotension and β1-adrenoceptor antagonism from the above data. Particulars: in vivo. As for the experimental part: (§1) Compounds were dosed following dissolution in distilled water or in polyethylene glycol and dilution with 0.9% saline. The compounds were then administered intravenously. The blood pressure and heart rate were monitored directly, from a polythene cannula placed in the carotid artery. The doses required to lower blood pressure by 40 mm Hg, when administered intravenously, were obtained from a dose response graph.
(§2) The doses required to inhibit isoprenaline-induced tachycardia by 50% (ID50) were obtained after intravenous administration.
(§3) Furthermore they have minimal intrinsic sympathomimetic activity as shown by the absence of a tachycardia in spontaneously beating guinea pig right atria. The compound of Example 1 produced a maximal increase of approximately 10% of the maximal isoprenaline induced tachycardia in an anaesthetised ganglion blocked cat.

Series [2] is described as follows: Anti-hypertensive activity: fall in blood pressure in anaesthetised rats, intravenous. Type of series: in vivo, rat. Particulars: from dose response graph; for ED (40 mm Hg): Rattus norvegicus, iv, read-out: dose required to lower blood pressure by 40 mm Hg. The protocol:
as §1

Series [3] concerns the target T1, β1 -receptors (Felis catus, UniProt Q9TST6).
T1 construct: from tissue; host or cells: living anaesthetised cat (in vivo)
The series is described as follows: β-Adrenoceptor antagonist activity: inhibition of isoprenaline-induced tachycardia in ganglion blocked anaesthetised cats. Particulars: for ED50: cat, iv, read-out: ID50 (inhibition of isoprenaline-induced tachycardia by 50%); for ED50 / ID50 (inhibition of isoprenaline-induced tachycardia by 50%): ganglion blocked anaesthetised cats, intravenous. Type of series: in vivo, cat.
Source text: as §2

A short description of series [4]: Intrinsic sympathomimetic activity (tachycardia) in anaesthetised ganglion blocked cat. It counts as in vivo.
Source text: as §3

In series [5] the target is T1, β1 -receptors. In words: β-Adrenoceptor antagonist activity: inhibition of isoprenaline-induced tachycardia in ganglion blocked anaesthetised cats. It counts as in vivo, cat. Particulars: prizidilol at doses giving a similar effect.
Series [6] can be described thus: Anti-hypertensive activity in conscious cats, oral. Type of series: in vivo, cat. Particulars: 19 μmol Kg^-1 (Example 1 base), 16 μmol Kg^-1 (Example 4 methanesulphonate); for changes in heart rate: at least 2 hours.
Series [7] in a line: Hypotension and aortic blood flow in anaesthetised cats. It counts as in vivo, cat. Particulars: 4 μmol Kg^-1 (base) and 7 μmol Kg^-1 (hydrochloride).
Series [8] in a line: Blood pressure in conscious spontaneously hypertensive rats, intravenous and oral. Type of series: in vivo, spontaneously hypertensive rat.
Series [9] has as its system isolated intact guinea pig trachea. The series is described as follows: Bronchodilatation: spontaneous tone of isolated intact guinea pig trachea. Particulars: bath concentration 1 μg ml^-1. As for the experimental part:
The compound of Example 4 (as methanesulphonate) (at a bath concentration of 1 μg ml^-1) caused a 50% reduction in the spontaneous tone of an isolated intact guinea pig trachea, as assessed by the method of Coleman R. A. and Farmer J. B. (1971), J. Pharm.

Series [10] is described as follows: Observation of toxic effects in conscious spontaneously hypertensive rats, oral. Type of series: in vivo, spontaneously hypertensive rat. Particulars: doses up to a maximum of 102 μmol Kg^-1.
[11] abbreviates: administration intra-arterially.
Setting [12] is: iv, administration intravenously.

Where a name gives a salt, the structure may show the parent alone. Read-outs that look alike come from different tables or passages of the source.

T1 sequence (Q9TST6 whole entry): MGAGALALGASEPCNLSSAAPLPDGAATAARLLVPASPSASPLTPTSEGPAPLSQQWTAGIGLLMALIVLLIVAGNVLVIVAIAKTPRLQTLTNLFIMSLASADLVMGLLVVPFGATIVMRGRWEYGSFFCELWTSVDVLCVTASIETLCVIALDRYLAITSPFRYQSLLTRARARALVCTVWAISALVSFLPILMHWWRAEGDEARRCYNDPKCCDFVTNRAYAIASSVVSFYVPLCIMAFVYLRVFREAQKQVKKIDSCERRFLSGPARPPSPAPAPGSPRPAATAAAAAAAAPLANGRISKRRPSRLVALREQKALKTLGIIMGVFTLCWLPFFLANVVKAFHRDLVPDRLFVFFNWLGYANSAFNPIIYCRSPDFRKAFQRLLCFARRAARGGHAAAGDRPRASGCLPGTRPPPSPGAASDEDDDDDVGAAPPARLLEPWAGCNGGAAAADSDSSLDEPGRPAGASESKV

Turning to `CC1CC(=O)NN=C1c1ccc(NC(=O)CCNC[C@H](O)COc2ccc(CCOCC3CC3)cc2)cc1` (single isomer, unassigned; (-)) [Example 11, (-)-6-[4-[3-[2-(-)-Hydroxy-3-[4-(2-(cyclopropylmethoxy)ethyl)phenoxy]propylamino]propionamido]phenyl]-5-methyl-4,5-dihydro-3(2H)-pyridazione[(-) (-)isomer]], in series [1] (setting [11]), the ED (50% increase) was determined as 1.1 µmol/kg. In addition, in the series on β1 -adrenoceptor, the “prolonged hypotension and β1-adrenoceptor antagonism over the same dose range” value is “cause prolonged hypotension and β1 -adrenoceptor antagonism over the same dose range”. For the same compound, the ED (40 mm Hg) in series [2] is 2.1 µmol/kg. On β1 -receptors [3], the ED50 was found to be 1.6 µmol/kg.
With `CC1CC(=O)NN=C1c1ccc(NC(=O)CCNCC(O)COc2ccc(CCOCC3CC3)cc2)cc1` (centres unmarked) [Example 1 as hydrochloride, 6-[4-[3-[2-Hydroxy-3-[4-(2-(cyclopropylmethoxy)ethyl)phenoxy]propylamino]propionamido]phenyl]-5-methyl-4,5-dihydro-3(2H)-pyridazinone], in series [1] (administration intravenously, listed as 1, as hydrochloride), the “dose required to increase hindquarters blood flow by 50%” value amounted to 4.0 µmol/kg. The “prolonged hypotension and β1-adrenoceptor antagonism over the same dose range” value in the series on β1 -adrenoceptor is “cause prolonged hypotension and β1 -adrenoceptor antagonism over the same dose range”. For the same compound, in series [2] (listed as 1, as hydrochloride), the “dose required to lower blood pressure by 40 mm Hg” value was found to be 4.0 µmol/kg. Moreover, the “ID50 (inhibition of isoprenaline-induced tachycardia by 50%)” value at β1 -receptors [3] (listed as 1, as hydrochloride) was found to be 4.3 µmol/kg.
Turning to `CC1CC(=O)NN=C1c1ccc(NC(=O)CCNCC(O)COc2ccc(CCOCC3CC3)cc2)cc1` (centres unmarked) [Example 1, 6-[4-[3-[2-Hydroxy-3-[4-(2-(cyclopropylmethoxy)ethyl)phenoxy]propylamino]propionamido]phenyl]-5-methyl-4,5-dihydro-3(2H)-pyridazinone], in series [1] (administration intravenously, as base), the “dose required to increase hindquarters blood flow by 50%” value was 11.5 µmol/kg. Moreover, the “maximal increase, of the maximal isoprenaline induced tachycardia” value in series [4] is on record as “approximately 10%”. At β1 -receptors [5], the “duration of inhibition of isoprenaline-induced tachycardia” value was “prolonged duration of inhibition”. In addition, the “prolonged hypotension and β1-adrenoceptor antagonism over the same dose range” value in the series with β1 -adrenoceptor was “cause prolonged hypotension and β1 -adrenoceptor antagonism over the same dose range”. Besides, in [6], the “period of blood pressure reduction with minimal heart rate change” value was “at least 2 hours”, the “reductions in blood pressure” value is listed as “reductions in blood pressure” and the “changes in heart rate” value is listed as “minimal changes in heart rate”. Also, the “dose required to lower blood pressure by 40 mm Hg” value in [2] (as base) stood at 8.0 µmol/kg. Besides, in series [7], the “changes in aortic blood flow” value was “minimal changes in aortic blood flow” and the hypotension result was “significant dose-dependent hypotension”. Further, the “ID50 (inhibition of isoprenaline-induced tachycardia by 50%)” value at β1 -receptors [3] (as base) turned out to be 1.9 µmol/kg. Also, the “selectivity for β1-receptors” value on β1 -receptors [3] (in vivo) is reported as “evidence that this compound has selectivity for β1 -receptors”.
`CCCc1cc(CCOCC2CC2)ccc1OCC(O)CNCCC(=O)Nc1ccc(C2=NNC(=O)CC2C)cc1` (centres unmarked) [Example 2, 6-[4-[3-[2-Hydroxy-3-[2-n-propyl-4-(2-(cyclopropylmethoxy)ethyl)phenoxy]propylamino]propionamido]phenyl]-5-methyl-4,5-dihydro-3(2H)-pyridazinone]: in series [1] (setting [12]), the ED (50% increase) was 1.43 µmol/kg. Moreover, the ED (40 mm Hg) in series [2] was determined as 3.15 µmol/kg. In addition, at β1 -receptors [3], the ED50 was 8.63 µmol/kg.
The matching figures for `Cc1cc(CCOCC2CC2)ccc1OCC(O)CNCCC(=O)Nc1ccc(C2=NNC(=O)CC2C)cc1` (centres unmarked) [Example 3, 6-[4-[3-[2-Hydroxy-3-[2-methyl-4-(2-(cyclopropylmethoxy)ethyl)phenoxy]propylamino]propionamido]phenyl]-5-methyl-4,5-dihydro-3(2H)-pyridazinone]: 1.95 µmol/kg, 2.95 µmol/kg and 7.84 µmol/kg.
As to `CC1CC(=O)NN=C1c1ccc(NC(=O)CCNCC(O)COc2ccc(CCOCC3CC3)cc2)cc1` (centres unmarked) [Example 4, 6-[4-[3-[2-Hydroxy-3-[4-(2-(cyclopropylmethoxy)ethyl)phenoxy]propylamino]propionamido]phenyl]-5-methyl-4,5-dihydro-3(2H)-pyridazinone], the ED (50% increase) in [1] (setting [11]) was found to be 1.7 µmol/kg. In addition, in series [1] (autoperfused anaesthetised rat hindquarters), the duration of vasodilatation result was “prolonged duration of vasodilatation”. In [8] (intravenous, 3 to 13 μmol Kg^-1), the “duration of prolonged, significant reductions in blood pressure (up to and including, post dose)” value was 5 h. Besides, the “fall in blood pressure” value in series [8] (intravenous, three dose levels from 3 to 13 μmol Kg^-1) is given as “significant fails in blood pressure”. For the same compound, the “duration of prolonged, significant reductions in blood pressure (up to and including, post dose)” value in series [8] (oral, 25 to 102 μmol Kg^-1) was determined as 5 h. Further, the hypotensive effect entry in series [8] (oral, three doses from 25 to 102 μmol Kg^-1) is recorded as “significant hypotensive effect”. In series [9], the “inhibition of the reduction in tracheal tone by propanolol” value is given as “not inhibited by propanolol” and the “reduction in spontaneous tone of trachea” value is on record as 50%. The toxic effects entry in series [10] is on record as “no toxic effects were observed”. In addition, the “prolonged hypotension and β1-adrenoceptor antagonism over the same dose range” value with β1 -adrenoceptor is “cause prolonged hypotension and β1 -adrenoceptor antagonism over the same dose range”. Also, in series [6], the “period of blood pressure reduction with minimal heart rate change” value is on record as “at least 2 hours”, the “reductions in blood pressure” value is listed as “reductions in blood pressure” and the “changes in heart rate” value was “minimal changes in heart rate”. Also, in series [2] (as methanesulphonate), the “dose required to lower blood pressure by 40 mm Hg” value is 2.8 µmol/kg. Moreover, at β1 -receptors [3] (as methanesulphonate), the “ID50 (inhibition of isoprenaline-induced tachycardia by 50%)” value turned out to be 1.4 µmol/kg.
Regarding `CC(C)(C)NCC(O)COc1ccccc1-c1ccc(NN)nn1` (centres unmarked) [Prizidilol, reference compound], in [1] (setting [11]), the ED (50% increase) came to 10 µmol/kg. The “duration of inhibition of isoprenaline-induced tachycardia” value on β1 -receptors [5] is “short duration of inhibition”. Moreover, the ED (40 mm Hg) in [2] came to 14 µmol/kg.
